From US11827663B2, “Use of UAP inhibitors to inhibit flux through the hexosamine biosynthetic pathway” (The Johns Hopkins University, priority 2014, dated 2023)

Legend:
Assay type in all cases: cell-based
[1] = system: N-glycans of SW1990 cells; test: Mass spectrometry of cell surface N-glycans in SW1990 cells; conditions: 100 μM
Method: FIGS. 18A-18B present mass spectrometry results showing levels of N-glycans (lower molecular weight glycans) and high molecular weight glycans following treatments with Ac4Glc2Bz (100 μM) in SW1990 cells.
(a) Cell surface N-Glycans. After two days of incubation with analog (a length of time sufficient to observe maximal “metabolic glycoengineering” effects (Biotechnol Bioeng 85, 394-405 (2004); Biotechnol Bioeng 109, 992-1006 (2012); Mol Cell Proteomics, 10.1074/mcp.M1112.017558 (2012); Glycobiology 19, 1382-1401 (2009); Nature Protocols 2, 1585-1602 (2007)), cells treated with PNGaseF, N-glycans were collected, and analyzed by following a recently developed protocol that optimizes sialic acid detection and quantification (Anal Chem 85, 3606-3613 (2013)). As previously developed, automated methods were used to analyze mass spectroscopy data to detect phenyl-modified sugars in glycan structures. This analysis was valuable to monitor whether any phenyl-modified analog was biosynthetically processed (instead or in addition to inhibiting UAP) and incorporated into cellular glycans.
For example, as shown in FIGS. 18A-18B, SW1990 cells were treated with Ac4Glc2Bz (100 μM), and the cell extracts were analyzed by mass spectrometry.

YAP/TAZ = test: Western blot of YAP/TAZ
Method: FIGS. 10A and 10B show the western blot results from primary glioblastoma cell lines 612 (FIG. 10A) (these cells were a kind gift of Dr. Quinones-Hinojosa (School of Medicine, Johns Hopkins University), who obtained the cells from cancer patients) and GS1049 (FIG. 10B) that were incubated for 48 h with Ac4Glc2Bz at the indicated concentrations. Each cell line was probed for the proteins Yes Associated Protein (YAP), transcriptional coactivator with PDZ-binding motif (TAZ), phosphorylated Yes Associated Protein (p-YAP), and Glyceraldehyde 3-phosphate dehydrogenase (GAPDH control). […] YAP/TAZ are two key mediators that act to […] the Hippo pathway, which helps to promote oncogenesis, metastasis, and cancer cell survival in circulation. Until now, there were no known small molecule pharmacological agents capable of decreasing YAP/TAZ expression. These studies helped illustrate the extraordinarily powerful potential of UAP1/2 inhibitors as truly disease modifying candidates, especially in cancer.
In addition, in FIG. 22B, YAP western blot results from Ac4Glc2Bz cells were obtained where shRNA knockdown of UAP1 was performed using lentiviral methods in PANC-1 cells (n=3). Similar to above, UAP1 in PANC-1 cells was knocked down using lentiviral vectors followed by 1 week selection using puromycin. […]

[2] = system: primary human adipose stem cells (hASCs); test: Cell count assay in control cells (human ASCs)
Text: FIG. 4A and FIG. 4B depict histogram results of cell count assays after two days of exposure to each analog in cancer cell lines (SW1990 and PANC-1) and in control cells (human ASCs). […] In all cases, IC50 values were greater than 300 which is the highest concentration tested, for the ACSs, while the Ac4Glc2Bz analogs and Ac4Gal2Bz analogs were effective to reduce cell numbers in both cancer cell lines.

microRNA = test: qRT-PCR analysis of microRNA expression; conditions: SW1990 and 612 cells, 48 h
Method: FIGS. 20A-20C show qRT-PCR analysis of microRNA expression following treatment with different concentrations of Ac4Glc2Bz, for SW1990 cells of […] (FIG. 20A); for 612 cells of 191b-5p (FIG. 20B); and for SW1990 cells of 181p-5p (FIG. 20C).
The microRNAs analyzed were chosen because they regulated different aspects of cancer cell glycosylation. 3×10^5 cells per well in a 6-well plate were seeded along with the concentrations of Ac4Glc2Bz indicated. Glioblastoma cells were placed on 6-well plates precoated with laminin (1 ug/cm^2). After 48 h, miRNA was extracted using a miRNeasy kit (Qiagen), followed by cDNA synthesis and qrt-PCR using miRCURY LNA™ Universal RT microRNA PCR Starter Kit (Exiqon).

[3] = system: primary glioblastoma cell line 612; test: Cell count of primary glioblastoma line 612
Method: FIG. 7A depicts the results of primary glioblastoma lines 612 and GS1049 after incubation for 48 h with Ac4Glc2Bz followed by cell counting and normalization to untreated controls. The data is log transformed to easily determine IC50 values. FIG. 7B and FIG. 7C depict the measurement of proliferation of the primary glioblastoma lines after 48 h incubation with Ac4Glc2Bz using a MTT assay.
Furthermore, cell morphologies were grossly altered as concentrations of Ac4Glc2Bz were increased, which likely indicated severe metabolic stress, induction of apoptosis, and possibly altered adhesion.
Cells were incubated at a range of concentrations of the UAP inhibitors (typically at 0, 10, 25, 50, 100, and 150 μM) and the number of cells were quantified, typically by automated counting (e.g., with a Coulter Counter Z2 instrument) after 1, 2, 3, or 5 days of exposure.

IC50 ([2]; Homo sapiens, 48 h, two days of exposure, 300 is the highest concentration tested): > 300 µM
SMILES: CC(=O)OCC1OC(OC(C)=O)[C@@H](NC(=O)c2ccccc2)[C@@H](OC(C)=O)[C@@H]1OC(C)=O (stereo partly drawn) [Ac4Glc2Bz]
amplitude of peaks for N-glycans (lower molecular weight glycans) [1]: not significantly reduced
peaks for high molecular weight glycans [1]: quantitative changes were identified
protein expression of YAP/GAPDH (YAP/TAZ; as described in Example 5): reduce protein expression of YAP/GAPDH in a dose-dependent manner
protein expression of YAP/TAZ (YAP/TAZ; primary glioblastoma cell lines 612 and GS1049, 48 h): virtually abolished
cytotoxicity / inhibition of normal ASCs ([2]; normal cells): minimally inhibits
microRNA expression (microRNA): could be modulated
cell densities under a microscope ([3]; 612 cells treated for 48 hours, FIG. 11): striking reduction in cell densities in a dose dependent manner
IC50 ([3]; 48 h incubation, cell counting normalized to untreated controls, read-out: Estimated IC50 values, 612): 36.2 ± 1.1 µM
